# Test results from paper PMC4763988, “Activating peptides for cellular uptake via polymerization into high density brushes” (Chemical Science, 2015).
# NorAha = not defined here
# Experiments:
# HeLa cells [1] = assay: Propidium iodide cell staining assay for necrotic cells; type: cell-based; details: flow cytometry PI channel; for Propidium iodide staining, shift of cell population (in words): KLA m ~ 10 5 hr, staurosporine 1 µM 24 hrs
# Protocol: Apoptosis and necrosis assays. Apoptotic and necrotic cells were identified using the CFTM488A Annexin V
# stains necrotic cells. For these studies, HeLa cells were plated at a density of 420,000 cells per well of a 6-well
# plate 18 hrs prior to treatment. KLA, m ~ 10, was dissolved in DPBS to a concentration of 2000 µM, where
# concentration is with respect to peptide and no fluorophore is present. Staurosporin, a small molecule that is
# known to cause apoptosis, was dissolved at 1000× (desired concentration on cells is 1 µM) in DMSO.
# Staurosporin and the vehicle control were added to the wells 24 hrs prior to analysis, and KLA (m ~ 10) and 10%
# DMSO control were added 5 hr prior to analysis. After incubation, materials were removed and the cells were
# washed 2× with DPBS followed by 3 × 5 minute incubations with heparin (0.5 mg/mL in DPBS), and finally rinsed
# and the cells were transferred to Eppendorf tubes. The suspended cells were centrifuged to pellets and then
# resuspended in 100 µL Annexin V binding buffer. Then 5 µL of Annexin V was added to each Eppendorf, followed
# by 1 µL of PI. The cells were then incubated in a 37 ° C water bath for 15 minutes in the dark. After incubation,
# flow cytometry data was acquired monitoring the FITC channel (for Annexin V staining) and the PI channel.
# cells = details: cited from earlier work
# [2] = Aggregation in DPBS by dynamic light scattering; type: physicochemical; details: for diameter by DLS: dissolved in DPBS, 10 x the concentration used in uptake studies, correlates to unimers
# Excerpt: (§1) and dried. In preparation for in vitro cell studies, all polymers were washed (3×) with cold ether (to remove the Ru catalyst) and then dissolved in DPBS and dialyzed in dialysis cups with a molecular weight cut-off value of 3500 (Thermo Scientific, cat. # 69552) in an effort to remove any residual monomer or catalyst.
# (§2) We also sought to determine whether our block copolymers (i.e., GSGSGRR60-b-OEG20 and derivatives) formed larger aggregate structures in aqueous solution. To this end, we characterized three polymers GSGSGRR m ~ 60, GSGSGKK m ~ 60 and GSGSG m ~ 60 dissolved in DPBS by standard dynamic light scattering (DLS) and […] electron microscopy (TEM) analyses, which we perform routinely in other work to characterize nano-and micron-scale polymer assemblies. […]
# quench here with IV. deprotection
# (§3) Figure S5. Polymerization scheme for the preparation of GSGSG peptide polymers and analogues. Peptide polymers for this series are prepared via ROMP as block copolymers with an accessory OEG block to ensure aqueous solubility of all GSGSG analogues. Each peptide block is polymerized to m ~ 8, 15, 30, and 60. The OEG block is kept constant at a DP of ~ 20. The living polymer can be terminated with ethyl vinyl ether after completion of the peptide block to gain accurate molecular weights (Mn), dispersity (Mw/Mn) and degree of polymerization (DP). […]
# [3] = Aggregation in DPBS by TEM; type: physicochemical; details: dissolved in DPBS, 10 x the concentration used in uptake studies
# Excerpt: as §1, §2, §3
# [4] = test system: pronase (protease cocktail); details: 50 µM with respect to peptide, protease 1 µM (Fig. S25 for KLA: 10 µM), 3 hrs in DPBS, heat denatured 65 °C 15 m, RP-HPLC with standard curve
# HeLa cells [5] = test system: HeLa cells
# trypsin = trypsin (Sus scrofa, UniProt P00761); details: 50 µM with respect to peptide, protease 1 µM (Fig. S25 for KLA: 10 µM), 3 hrs in DPBS, heat denatured 65 °C 15 m, RP-HPLC with standard curve
# HeLa cells [6] = test system: HeLa cells; remark: listed apart in the source
# HeLa cells [7] = type: cell-based
# Protocol: Figures S10. Influence of the degree of polymerization or “m” on cellular uptake as quantified by flow cytometry. All data are […] with respect to the fluorophore. 20 15 10 Conc.&(μM)& […] 5 […] 0 […] Figures S11. Concentration dependence of cellular uptake as quantified by flow cytometry. All data are referenced to vehicle […] Concentration of all materials is with respect to the fluorophore. SVI. Live-cell confocal microscopy. HeLa cells were plated on glass-bottom 24-well plates at a cell density of 90,000 cells per well 18 hrs prior to treatment with the compound of interest. The medium was removed and then replaced with medium lacking phenol red (Gibco Life Tech., cat# 31053-028) to minimize background fluorescence. […] respect to fluorophore) were added to the wells and the plates were incubated for 30 min at 37 °C. The medium was then removed and the cells were rinsed 2× with DPBS, and then fresh medium (phenol red- free) was added to each well. Live cells were imaged on an Olympus FV1000 confocal microscope with a chamber at 37 ° C under 5% CO2 via a Z-stack analysis (set to 1 μm slices) using identical instrument settings for each image and a 40× or 100x objective. S14 (also on this page, place not known: 31053 -028) […] Normalized Mean Fluorescence […]
# [8] = test system: mitochondrial membrane potential in HeLa cells; assay: JC-1 mitochondrial integrity (membrane potential) assay; type: cell-based; details: JC-1 assay, relative to vehicle (DPBS)-treated cells
# Sequence of trypsin (P00761 9-231): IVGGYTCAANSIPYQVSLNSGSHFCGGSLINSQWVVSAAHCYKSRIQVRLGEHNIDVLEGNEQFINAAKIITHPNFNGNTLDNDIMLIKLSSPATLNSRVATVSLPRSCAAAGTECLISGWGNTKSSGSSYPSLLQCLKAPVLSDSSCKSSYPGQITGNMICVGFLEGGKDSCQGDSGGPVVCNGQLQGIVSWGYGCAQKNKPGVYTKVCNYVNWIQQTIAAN
compound,measurement,setting,value
C[S+](C)[O-] [DMSO],"Propidium iodide staining, increase in necrotic cells",HeLa cells [1]; 10% DMSO added 5 hr prior to analysis,~40 fold increase
CN[C@@H]1C[C@H]2O[C@@](C)([C@@H]1OC)n1c3ccccc3c3c4c(c5c6ccccc6n2c5c31)C(=O)NC4 [Staurosporine],"Propidium iodide staining, shift of cell population (in words)",HeLa cells [1],no shift
GSGSG,Cell penetration of GSGSG (in words),cells,does not penetrate cells
GSGSG56-b-OEG28 [GSGSG polymer],diameter by DLS,[2],< 6 nm
same,TEM images compared with buffer (DPBS) alone,[3],indistinguishable
GSGSGK53-b-OEG20 [GSGSGK Polymer (m ~ 60)],Aggregation of deprotected polymer in DPBS by dynamic light scattering (in words),"[2]; DPBS, deprotected polymer",did not aggregate in DPBS
K(Flu)KLAKLAKKLAKLAK-NH2 [KLA peptide],Cell penetration of KLA (in words),cells; sub-millimolar concentrations,does not penetrate cells at sub-millimolar concentrations
same,"Proteolytic degradation by pronase (RP-HPLC before and after, in words)",[4],completely degraded into fragments
same,Cellular uptake: fluorescence signal of treated HeLa cells by flow cytometry (in words),HeLa cells [5],indistinguishable from that of the vehicle control
same,"Proteolytic degradation by trypsin (RP-HPLC before and after, in words)",trypsin,completely degraded into fragments
same,Cytotoxicity (in words),HeLa cells [6],no cytotoxicity was detected
NorAhaGSGSGKK-NH2 [GSGSGKK polymer],Internalization and localization by live-cell confocal microscopy (in words),HeLa cells [7],diffuse and punctate fluorescence
same,diameter by DLS,[2],< 6 nm
same,TEM images compared with buffer (DPBS) alone,[3],indistinguishable
"NorAhaKLAKLAK-NH2 (NorAha-KLAKLAK-NH2; reading uncertain; also: polymerized by ROMP, about 10 repeats on polymer backbone) [KLAfragment]",Mitochondrial integrity of treated cells (in words),[8],unaffected
same,Internalization and localization by live-cell confocal microscopy (in words),HeLa cells [7],mixture of diffuse and punctate fluorescence
same,Cytotoxicity (in words),HeLa cells [6],negligible toxicity
NorAhaKLAKLAKKLAKLAK-NH2 [KLA polymer (m ∼ 5)],LD50,HeLa cells [6],12.5 µM
NorAhaKLAKLAKKLAKLAK-NH2 [KLA polymer (m ∼ 10)],"Propidium iodide staining, shift of cell population (in words)",HeLa cells [1],no shift
same,Internalization and localization by live-cell confocal microscopy (in words),HeLa cells [7],diffuse and punctate fluorescence
same,LD50,HeLa cells [6],25 µM
NorAhaKLAKLAKKLAKLAK-NH2 [KLA polymer (m ∼ 15)],LD50,HeLa cells [6],30 µM
